The record followed here is article PMC3091966 (2011).

The structures appear in SMILES notation.

Usually EC50 stands for the concentration needed to bring the measured effect to its halfway point.

The target in experiment [1] is T1, human αβγ ENaC (α subunit) (Homo sapiens, UniProt P37088+P51168+P51170).
T1 sequence (P37088 1-669): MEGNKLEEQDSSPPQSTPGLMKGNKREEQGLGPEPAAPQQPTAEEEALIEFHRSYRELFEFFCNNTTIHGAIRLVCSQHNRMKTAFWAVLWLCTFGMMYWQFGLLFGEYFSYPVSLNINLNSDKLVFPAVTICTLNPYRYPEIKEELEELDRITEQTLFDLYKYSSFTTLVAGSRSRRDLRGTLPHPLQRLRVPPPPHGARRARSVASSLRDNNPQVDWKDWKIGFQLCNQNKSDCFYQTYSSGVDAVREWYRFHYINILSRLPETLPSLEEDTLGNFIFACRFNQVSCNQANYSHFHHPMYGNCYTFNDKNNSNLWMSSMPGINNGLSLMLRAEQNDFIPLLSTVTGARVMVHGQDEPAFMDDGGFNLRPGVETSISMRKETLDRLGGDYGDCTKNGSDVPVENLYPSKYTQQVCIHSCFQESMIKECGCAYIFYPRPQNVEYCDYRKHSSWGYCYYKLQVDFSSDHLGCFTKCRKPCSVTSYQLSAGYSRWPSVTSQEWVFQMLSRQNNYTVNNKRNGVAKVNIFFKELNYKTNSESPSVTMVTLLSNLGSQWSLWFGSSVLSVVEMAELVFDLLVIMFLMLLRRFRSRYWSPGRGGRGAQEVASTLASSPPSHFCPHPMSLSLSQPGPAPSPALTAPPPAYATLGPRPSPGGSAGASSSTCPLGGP
T1 sequence (P51168 1-640): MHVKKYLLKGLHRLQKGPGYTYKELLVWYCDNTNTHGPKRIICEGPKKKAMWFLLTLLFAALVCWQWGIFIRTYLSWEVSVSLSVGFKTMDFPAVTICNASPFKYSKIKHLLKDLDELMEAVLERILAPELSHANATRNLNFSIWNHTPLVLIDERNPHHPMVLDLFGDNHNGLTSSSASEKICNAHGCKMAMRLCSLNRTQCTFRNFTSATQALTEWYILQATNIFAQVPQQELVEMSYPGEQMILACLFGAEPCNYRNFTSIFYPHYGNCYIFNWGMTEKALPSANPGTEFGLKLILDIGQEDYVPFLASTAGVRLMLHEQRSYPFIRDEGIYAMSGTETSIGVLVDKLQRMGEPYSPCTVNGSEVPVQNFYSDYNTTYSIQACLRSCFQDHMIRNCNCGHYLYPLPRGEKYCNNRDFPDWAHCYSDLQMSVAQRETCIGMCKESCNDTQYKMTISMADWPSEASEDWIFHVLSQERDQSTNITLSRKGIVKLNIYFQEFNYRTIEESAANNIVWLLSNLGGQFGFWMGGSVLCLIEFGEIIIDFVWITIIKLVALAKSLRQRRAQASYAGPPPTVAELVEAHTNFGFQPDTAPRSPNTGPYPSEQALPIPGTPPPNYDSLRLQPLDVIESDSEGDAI
T1 sequence (P51170 1-649): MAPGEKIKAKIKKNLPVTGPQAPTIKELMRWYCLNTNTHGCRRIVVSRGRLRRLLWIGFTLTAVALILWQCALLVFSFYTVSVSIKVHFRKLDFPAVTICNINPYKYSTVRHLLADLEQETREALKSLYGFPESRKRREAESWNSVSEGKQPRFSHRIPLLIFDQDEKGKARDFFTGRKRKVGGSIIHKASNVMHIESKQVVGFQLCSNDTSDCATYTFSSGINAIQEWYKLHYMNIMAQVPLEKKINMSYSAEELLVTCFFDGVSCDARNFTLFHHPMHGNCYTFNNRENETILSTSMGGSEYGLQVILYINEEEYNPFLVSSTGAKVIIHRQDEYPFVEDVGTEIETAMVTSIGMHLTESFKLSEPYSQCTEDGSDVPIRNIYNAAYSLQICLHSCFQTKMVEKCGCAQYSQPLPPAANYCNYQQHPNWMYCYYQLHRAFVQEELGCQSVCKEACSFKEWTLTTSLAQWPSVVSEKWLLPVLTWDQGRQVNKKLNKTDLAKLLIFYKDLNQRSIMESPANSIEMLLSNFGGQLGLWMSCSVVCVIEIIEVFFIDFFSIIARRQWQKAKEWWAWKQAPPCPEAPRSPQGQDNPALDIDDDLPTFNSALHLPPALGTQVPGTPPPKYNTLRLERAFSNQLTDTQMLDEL
The experiment is described as follows: two-electrode voltage clamp in Xenopus oocytes, external perfusion. Type of experiment: cell-based. On the technique in general: Two-electrode voltage clamp is typically applied to oocytes expressing channels or transporters.

The target in experiment [2] is T1, human αβγ ENaC (α subunit). The experiment is described as follows: two-electrode voltage clamp in Xenopus oocytes, block of current. The experiment is classed as cell-based.

On to `Nc1ncnc2c1nc(Sc1ccc(Cl)cc1)n2[C@@H]1O[C@@H]2COP(=O)(O)O[C@H]2[C@H]1O` [cpt-cAMP], for which a half-maximal response in experiment [1] (EC50) required 49 ± 14 µM. On to `N=C(N)NC(=O)c1nc(Cl)c(N)nc1N` [amiloride], for which the “two-electrode voltage clamp in Xenopus oocytes, block of current” value in experiment [2] is “Both basal and elevated currents were sensitive to amiloride”.
